Each compound was assayed against T1, human OX2R (Homo sapiens, UniProt O43614) (assay: IPOne (IP-1) orexin receptor agonist assay in CHO cells expressing human OX2R). Details: CHO, hOX2R IP-One; percentage of mean max effect of a reference compound at 1 uM with 100% activity.
T1 sequence (O43614 1-444): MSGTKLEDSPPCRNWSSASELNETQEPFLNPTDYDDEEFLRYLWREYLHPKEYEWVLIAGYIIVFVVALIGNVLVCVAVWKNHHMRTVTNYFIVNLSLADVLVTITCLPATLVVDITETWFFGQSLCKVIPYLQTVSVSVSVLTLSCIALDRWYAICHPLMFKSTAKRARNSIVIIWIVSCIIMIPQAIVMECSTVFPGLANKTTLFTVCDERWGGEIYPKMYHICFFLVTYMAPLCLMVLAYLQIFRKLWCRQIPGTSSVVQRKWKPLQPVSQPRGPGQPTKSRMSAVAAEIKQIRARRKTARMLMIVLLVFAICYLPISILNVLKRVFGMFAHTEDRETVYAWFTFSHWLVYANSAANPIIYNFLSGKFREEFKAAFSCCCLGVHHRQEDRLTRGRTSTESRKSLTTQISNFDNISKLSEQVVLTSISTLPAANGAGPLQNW
Description: In atypical experiment, the OX1 and OX2 receptor agonist activity is determined in accordance with the following general experimental method. Chinese hamster ovary (CHO) cells expressing human OX1R and/or the human OX2R were grown in Iscove's modified DMEM containing glutaMAX™, 1% G418, 100 U/mL penicillin, 100 μg/mL streptomycin and 10% heat-inactivated qualified fetal bovine serum (FBS). […] During this incubation, IP-one detection reagents were prepared (38:1:1 lysis buffer:D2:AB-cryptate reagents).
For each compound, data were fit to a four parameter logistic fit (ActivityBase software) and the EC50 was reported as the inflection point of the resulting curve.

Emax [%] | SMILES
99.5 | CCOc1cc2nc(c1)C1CCC(CC1)OCC1[C@@H](NS(C)(=O)=O)C[C@@H](C)N1C(=O)OCCO2 (stereo partly shown) [Example 77, N-((2^1S,2^4S,5^2R,5^3S,5^5R)-1^4-ethoxy-5^5-methyl-6-oxo-3,7,10-trioxa-1(2,6)-pyridina-5(2,1)-pyrrolidina-2(1,4)-cyclohexanacyclodecaphane-5^3-yl)methanesulfonamide]
100 | CCOc1cc2nc(c1)C1CCC(CC1)OCC1[C@@H](NS(C)(=O)=O)C[C@@H](C)N1C(=O)OCCCO2 (stereo partly shown) [Example 78, N-((2^1S,2^4S,5^2R,5^3S,5^5R)-1^4-ethoxy-5^5-methyl-6-oxo-3,7,11-trioxa-1(2,6)-pyridina-5(2,1)-pyrrolidina-2(1,4)-cyclohexanacycloundecaphane-5^3-yl)methanesulfonamide]
99.4 | Cc1ccc2nc1C1CCC(CC1)OCC1[C@@H](NS(C)(=O)=O)C[C@@H](C)N1C(=O)OCCCO2 (stereo partly shown) [Example 80, N-((2^1S,2^4S,5^2R,5^3S,5^5R)-1^3,5^5-dimethyl-6-oxo-3,7,11-trioxa-1(2,6)-pyridina-5(2,1)-pyrrolidina-2(1,4)-cyclohexanacycloundecaphane-5^3-yl)methanesulfonamide]
104 | C[C@@H]1C[C@H](NS(C)(=O)=O)C2COC3CCC(CC3)c3nc(c(F)cc3F)OCCCOC(=O)N21 (stereo partly shown) [Example 81, N-((2^1S,2^4S,5^2R,5^3S,5^5R)-1^3,1^5-difluoro-5^5-methyl-6-oxo-3,7,11-trioxa-1(2,6)-pyridina-5(2,1)-pyrrolidina-2(1,4)-cyclohexanacycloundecaphane-5^3-yl)methanesulfonamide]
102 | COC[C@@H]1C[C@H](NS(C)(=O)=O)C2COC3CCC(CC3)c3cc(C(F)(F)F)cc(n3)OCCCOC(=O)N21 (stereo partly shown) [Example 83, N-((2^1S,2^4S,5^2R,5^3S,5^5S)-5^5-(methoxymethyl)-6-oxo-1^4-(trifluoromethyl)-3,7,11-trioxa-1(2,6)-pyridina-5(2,1)-pyrrolidina-2(1,4)-cyclohexanacycloundecaphane-5^3-yl)methanesulfonamide]
101 | COC[C@@H]1C[C@H](NS(C)(=O)=O)C2COC3CCC(CC3)c3cc(C(F)(F)F)cc(n3)OCCOC(=O)N21 (stereo partly shown) [Example 84, N-((2^1S,2^4S,5^2R,5^3S,5^5S)-5^5-(methoxymethyl)-6-oxo-1^4-(trifluoromethyl)-3,7,10-trioxa-1(2,6)-pyridina-5(2,1)-pyrrolidina-2(1,4)-cyclohexanacyclodecaphane-5^3-yl)methanesulfonamide]
102 | COC[C@@H]1C[C@H](NS(C)(=O)=O)C2COC3CCC(CC3)c3cc(C(F)F)cc(n3)OCCCOC(=O)N21 (stereo partly shown) [Example 85, N-((2^1S,2^4S,5^2R,5^3S,5^5S)-14-(difluoromethyl)-5^5-(methoxymethyl)-6-oxo-3,7,11-trioxa-1(2,6)-pyridina-5(2,1)-pyrrolidina-2(1,4)-cyclohexanacycloundecaphane-5^3-yl)methanesulfonamide]
101 | C[C@@H]1C[C@H](NS(C)(=O)=O)C2COC3CCC(CC3)c3cc(C(F)F)cc(n3)OCCCOC(=O)N21 (stereo partly shown) [Example 86, N-((2^1S,2^4S,5^2R,5^3S,5^5R)-1^4-(difluoromethyl)-5^5-methyl-6-oxo-3,7,11-trioxa-1(2,6)-pyridina-5(2,1)-pyrrolidina-2(1,4)-cyclohexanacycloundecaphane-5^3-yl)methanesulfonamide]
100 | COC[C@@H]1C[C@H](NS(C)(=O)=O)C2COC3CCC(CC3)c3nc(ccc3C(F)(F)F)OCCOC(=O)N21 (stereo partly shown) [Example 87, N-((2^1S,2^4S,5^2R,5^3S,5^5S)-5^5-(methoxymethyl)-6-oxo-1^3-(trifluoromethyl)-3,7,10-trioxa-1(2,6)-pyridina-5(2,1)-pyrrolidina-2(1,4)-cyclohexanacyclodecaphane-5^3-yl)methanesulfonamide]
103 | COc1cc2nc(c1)[C@H]1CC[C@H](CC1)OC[C@H]1[C@@H](NS(C)(=O)=O)C[C@@H](C)N1C(=O)OCCCN2 [Example 88, N-((2^1S,2^4S,5^2R,5^3S,5^5R)-1^4-methoxy-5^5-methyl-6-oxo-3,7-dioxa-11-aza-1(2,6)-pyridina-5(2,1)-pyrrolidina-2(1,4)-cyclohexanacycloundecaphane-5^3-yl)methanesulfonamide]
101 | C[C@@H]1C[C@H](NS(C)(=O)=O)C2COC3CCC(CC3)c3cc(C(F)(F)F)cc(n3)N(C)CCCOC(=O)N21 (stereo partly shown) [Example 89, N-((2^1S,2^4S,5^2R,5^3S,5^5R)-5^5,1^1-dimethyl-6-oxo-1^4-(trifluoromethyl)-3,7-dioxa-11-aza-1(2,6)-pyridina-5(2,1)-pyrrolidina-2(1,4)-cyclohexanacycloundecaphane-5^3-yl)methanesulfonamide]
101 | C[C@@H]1C[C@H](NS(C)(=O)=O)C2COC3CCC(CC3)c3cccc(n3)NCCCOC(=O)N21 (stereo partly shown) [Example 90, N-((2^1S,2^4S,5^2R,5^3S,5^5R)-5^5-methyl-6-oxo-3,7-dioxa-11-aza-1(2,6)-pyridina-5(2,1)-pyrrolidina-2(1,4)-cyclohexanacycloundecaphane-5^3-yl)methanesulfonamide]
102 | C[C@@H]1C[C@H](NS(C)(=O)=O)C2COC3CCC(CC3)c3cccc(n3)N(C)CCCOC(=O)N21 (stereo partly shown) [Example 91, N-((2^1S,2^4S,5^2R, 5^3S,5^5R)-5^5,^11-dimethyl-6-oxo-3,7-dioxa-11-aza-1(2,6)-pyridina-5(2,1)-pyrrolidina-2(1,4)-cyclohexanacycloundecaphane-5^3-yl)methanesulfonamide]
98.9 | C[C@@H]1C[C@H](NS(C)(=O)=O)C2COC3CCC(CC3)c3ccc(F)c(n3)NCCOC(=O)N21 (stereo partly shown) [Example 92, N-((2^1S,2^4S,5^2R,5^3S,5^5R)-1^5-fluoro-5^5-methyl-6-oxo-3,7-dioxa-10-aza-1(2,6)-pyridina-5(2,1)-pyrrolidina-2(1,4)-cyclohexanacyclodecaphane-5^3-yl)methanesulfonamide]
103 | C[C@@H]1C[C@H](NS(C)(=O)=O)C2COC3CCC(CC3)c3ccc(F)c(n3)NCCCOC(=O)N21 (stereo partly shown) [Example 93, N-((2^1S,2^4S,5^2R,5^3S,5^5R)-1^5-fluoro-5^5-methyl-6-oxo-3,7-dioxa-11-aza-1(2,6)-pyridina-5(2,1)-pyrrolidina-2(1,4)-cyclohexanacycloundecaphane-5^3-yl)methanesulfonamide]
37.5 | C[C@@H]1C[C@H](NS(C)(=O)=O)C2COC3CCC(CC3)c3nc(ccc3C(F)(F)F)N(C)CCCOC(=O)N21 (stereo partly shown) [Example 94, N-((2^1S,2^4S,5^2R,5^3S,5^5R)-5^5,1^1-dimethyl-6-oxo-1^3-(trifluoromethyl)-3,7-dioxa-11-aza-1(2,6)-pyridina-5(2,1)-pyrrolidina-2(1,4)-cyclohexanacycloundecaphane-5^3-yl)methanesulfonamid]
98.4 | COc1cc2nc(c1)N(C)CCCOC(=O)N1C(COC3CCC2CC3)[C@@H](NS(C)(=O)=O)C[C@H]1C (stereo partly shown) [Example 95, N-((2^1S,2^4S,5^2R,5^3S,5^5R)-1^4-methoxy-5^5,1^1-dimethyl-6-oxo-3,7-dioxa-11-aza-1(2,6)-pyridina-5(2,1)-pyrrolidina-2(1,4)-cyclohexanacycloundecaphane-5^3-yl)methanesulfonamide]
100 | CS(=O)(=O)N[C@H]1C[C@@H](CO)N2C(=O)OCCOc3ccc(C(F)(F)F)c(n3)[C@H]3CC[C@H](CC3)OC[C@@H]12 [Example 96, N-((2^1R,2^4R,5^2R,5^3S,5^5S)-5^5-(hydroxymethyl)-6-oxo-1^3-(trifluoromethyl)-3,7,10-trioxa-1(2,6)-pyridina-5(2,1)-pyrrolidina-2(1,4)-cyclohexanacyclodecaphane-5^3-yl)methanesulfonamide]
98.4 | CS(=O)(=O)N[C@H]1C[C@@H](CO)N2C(=O)OCCCOc3cc(C(F)F)cc(n3)C3CCC(CC3)OCC12 (stereo partly shown) [Example 97, N-((2^1S,2^4S,5^2R,5^3S,5^5S)-1^4-(difluoromethyl)-5^5-(hydroxymethyl)-6-oxo-3,7,11-trioxa-1(2,6)-pyridina-5(2,1)-pyrrolidina-2(1,4)-cyclohexanacycloundecaphane-5^3-yl)methanesulfonamide]
100 | CN(C)C[C@@H]1C[C@H](NS(C)(=O)=O)[C@@H]2CO[C@H]3CC[C@H](CC3)c3nc(ccc3C(F)(F)F)OCCOC(=O)N12 [Example 98, N-((2^1R,2^4R,5^2R,5^3S,5^5S)-5^5-((dimethylamino)methyl)-6-oxo-1^3-(trifluoromethyl)-3,7,10-trioxa-1(2,6)-pyridina-5(2,1)-pyrrolidina-2(1,4)-cyclohexanacyclodecaphane-5^3-yl)methanesulfonamide]
100 | CS(=O)(=O)N[C@H]1C[C@@H](CC(N)=O)N2C(=O)OCCOc3ccc(C(F)(F)F)c(n3)C3CCC(CC3)OCC12 (stereo partly shown) [Example 99, 2-((2^1R,2^4R,5^2R,5^3S,5^5S)-5^3-(methylsulfonamido)-6-oxo-1^3-(trifluoromethyl)-3,7,10-trioxa-1(2,6)-pyridina-5(2,1)-pyrrolidina-2(1,4)-cyclohexanacyclodecaphane-5^5-yl)acetamide]
102 | CN(C)C[C@@H]1C[C@H](NS(C)(=O)=O)C2COC3CCC(CC3)c3cc(C(F)F)cc(n3)OCCCOC(=O)N21 (stereo partly shown) [Example 100, N-((2^1S,2^4S,5^2R,5^3S,5^5S)-1^4-(difluoromethyl)-5^5-((dimethylamino)methyl)-6-oxo-3,7,11-trioxa-1(2,6)-pyridina-5(2,1)-pyrrolidina-2(1,4)-cyclohexanacycloundecaphane-5^3-yl)methanesulfonamide]

Reference: US20240002397A1, “3-AMINO PYRROLIDINE AND PIPERIDINE MACROCYCLIC OREXIN RECEPTOR AGONISTS” (Merck Sharp & Dohme LLC, priority 2020, published 2024)
